Source: ChEMBL document CHEMBL3507680, “University of Dundee, Gates Library screen for HepG2 cell viability”

Assay: Human HepG2 cell viability assay in 384 well format
Format: toxicity, cell-based
Set-up: dose 125 nL, time 70.5 hour; cytotoxicity at 70.5 h: concentration not given beside the values
Conditions: HepG2 cells, read-out: Inhibition

CCCc1nc(C)cc(NCc2ccc(S(N)(=O)=O)cc2)n1
cytotoxicity at 70.5 h: -16.8%

COc1ncccc1CNC(=O)c1ccco1
cytotoxicity at 70.5 h: 18%

COc1cc(Oc2ccc(C(F)(F)F)cn2)ccc1CN1CCCC1
cytotoxicity at 70.5 h: -10.7%

COc1cccc(CNC(=O)c2cccnc2SC(C)C)c1
cytotoxicity at 70.5 h: -5.9%

Cc1cc(NC(=O)CC2(Cn3cnnn3)CCCCC2)nn1C
cytotoxicity at 70.5 h: -23.2%

Cc1cnn(CC2CCN(c3cc(C(C)C)nc4ccnn34)CC2)c1
cytotoxicity at 70.5 h: -0.486%

Cc1nc(CN(C)CC2CCCN(CCc3ccc(Cl)cc3)C2)n(C)n1 (stereo not drawn)
cytotoxicity at 70.5 h: -19.1%

CC(C)CN1C(=O)C2(CCCC2)NC1c1cn(C)c(=O)n(C)c1=O (stereo not drawn)
cytotoxicity at 70.5 h: 0.777%

c1cnnc(N2CCCC(NCc3cccc4c3OCCCO4)C2)c1 (stereo not drawn)
cytotoxicity at 70.5 h: 0.746%

Cc1nc(CN2CCCN(CC(=O)N(C)CCC#N)CC2)no1
cytotoxicity at 70.5 h: -9.21%

CC(=O)c1ccccc1NC(=O)CCN1CCSCC1
cytotoxicity at 70.5 h: 6.67%

O=c1[nH]nc(CNCc2ccc(OC34CCCN(CC3)C4)cc2)[nH]1 (stereo not drawn)
cytotoxicity at 70.5 h: -4.91%

O=S(=O)(NC[C@H]1OC[C@@H](NCc2cccs2)[C@@H]1O)c1ccccc1
cytotoxicity at 70.5 h: -10.7%

Cc1cccc(CN2CCC3(CCCN(C(=O)NC4CC4)C3)C2=O)n1 (stereo not drawn)
cytotoxicity at 70.5 h: 25.5%

Fc1cccc2c1CCC2NCc1ccc(N2CCOCC2)cc1 (stereo not drawn)
cytotoxicity at 70.5 h: 1.27%

Cc1cccc(C)c1Nc1noc2c1CN(C(=O)c1c[nH]nc1C)CC2
cytotoxicity at 70.5 h: 12.8%

COC(=O)Cn1c(C)cc(=O)n2nc(-c3cccs3)nc12
cytotoxicity at 70.5 h: 13.3%

CNC(=O)c1cccc(C2CNCCN2C(=O)c2cccc(F)c2)c1 (stereo not drawn)
cytotoxicity at 70.5 h: 25%

O=C(Cc1ccc(-n2cnnn2)cc1)Nc1cnn(CC(F)F)c1
cytotoxicity at 70.5 h: -15.7%

CCCC(=O)N(C)Cc1nc(N2CCCC2)ncc1-c1ccncc1
cytotoxicity at 70.5 h: -11%

O=S(=O)(c1cccnc1)N1C[C@@H]2COC[C@]2(CN2CCOCC2)C1
cytotoxicity at 70.5 h: -4.52%

CC(C)(CNc1cccc(Cl)c1)NC(=O)C1CCCN(CC(N)=O)C1 (stereo not drawn)
cytotoxicity at 70.5 h: -8.71%

CC(=O)Nc1ccc2nc(CN(C)Cc3noc(C)n3)ccc2c1
cytotoxicity at 70.5 h: -4.56%

Cc1cnn(CCNCc2ccc(OCc3cscn3)cc2)c1
cytotoxicity at 70.5 h: -6.84%

Cc1cccc(C(C)CNS(=O)(=O)CCCC#N)c1 (stereo not drawn)
cytotoxicity at 70.5 h: -8.11%

CCn1c(CC2CCN(C(=O)C3CC(C(C)C)=NO3)CC2)nn(C)c1=O (stereo not drawn)
cytotoxicity at 70.5 h: -6.72%

c1cnnc(N2CCCC2CNCc2nc(-c3ccsc3)no2)c1 (stereo not drawn)
cytotoxicity at 70.5 h: -20.3%

CC(C)OCCCNC(=O)C1CCCN(c2ccc3nncn3n2)C1 (stereo not drawn)
cytotoxicity at 70.5 h: -9.82%

COCC1CC2(CCN(Cc3nccn3C)CC2)CN1c1ncccn1 (stereo not drawn)
cytotoxicity at 70.5 h: -0.457%

N[C@H]1CC[C@@H](n2cc(C(=O)NC3CCc4ccccc4C3)nn2)CC1 (stereo partly drawn)
cytotoxicity at 70.5 h: -11.5%

CCCc1nc(N(C)Cc2cnc(NC)nc2)c2cnn(C)c2n1
cytotoxicity at 70.5 h: 8.94%

CN(C)c1nc2c(c(N(C)Cc3n[nH]c4c3CCCCC4)n1)CCNC2
cytotoxicity at 70.5 h: -9.48%

O=C1CCC2(CCN(Cc3nccs3)CC2)CN1CCCO
cytotoxicity at 70.5 h: -6.67%

CCCS(=O)(=O)N1CCC2(CC1)CC(Nc1ncccn1)CO2 (stereo not drawn)
cytotoxicity at 70.5 h: -99.6%

Cc1cc(NC(=O)CN2CCc3cnc(C)nc3C2)on1
cytotoxicity at 70.5 h: 35.8%

O=C1NCCN(C(=O)CCN2CCCO2)C1c1cccc(F)c1 (stereo not drawn)
cytotoxicity at 70.5 h: 4.41%

CC(=O)N1CCc2c(nc(N(C)C)nc2N(C)CCO)C1
cytotoxicity at 70.5 h: -2.49%

O=C(Cc1ccccc1C(F)(F)F)N1CCC2(CC1)OCCCC2O (stereo not drawn)
cytotoxicity at 70.5 h: -16.7%

Cc1nn(C)c2c(NCCCn3cccn3)nc(C3CC3)nc12
cytotoxicity at 70.5 h: -5.95%

CCn1nc(C)c2nc(C(C)C)nc(NC)c21
cytotoxicity at 70.5 h: 20.9%

Cc1nc(C)n(C2CCCN(C(=O)CCOC(C)C)C2)n1 (stereo not drawn)
cytotoxicity at 70.5 h: 10.2%

COc1ccccc1CNC(=O)CS(=O)(=O)Cc1ccccc1
cytotoxicity at 70.5 h: -3.93%

COc1ccnc(CN2CC(=O)N(c3ccc(C)cc3)CC2C)c1OC (stereo not drawn)
cytotoxicity at 70.5 h: 16.8%

COc1cccc(/C=C/CCN2CCC(C(=O)N3CCCC3)CC2)c1
cytotoxicity at 70.5 h: 3.93%

NCc1cnn(-c2ccccc2C(=O)N2CCCC(C(N)=O)C2)c1 (stereo not drawn)
cytotoxicity at 70.5 h: -2.72%

Cn1cc(S(=O)(=O)NC(CO)Cc2c[nH]c3ccccc23)cn1 (stereo not drawn)
cytotoxicity at 70.5 h: -7.44%

Fc1cccc(N2CCCC3(CN(Cc4ccccn4)CCO3)C2)c1 (stereo not drawn)
cytotoxicity at 70.5 h: -1.7%

CCOCCCNC(=O)CCCC(=O)n1nc(C)c2ccccc21
cytotoxicity at 70.5 h: -3.2%

CCCNc1ncc(CN2C[C@H]3CC[C@@H]2CN(C2CCOCC2)C3)cn1
cytotoxicity at 70.5 h: 2.68%

CCc1cnc(N2CC3(CCN(Cc4ccsc4)C3)C2)nc1
cytotoxicity at 70.5 h: 18.4%

COc1nccc(N2CCN(Cc3ccc(C)cc3)C(=O)C2)c1C#N
cytotoxicity at 70.5 h: 1.75%

CNS(=O)(=O)c1cccc(CNC(=O)c2c(C)oc(C)c2C)c1
cytotoxicity at 70.5 h: 22.6%

O=C(c1ccncc1)N1C[C@@H]2CC[C@H](C1)N(S(=O)(=O)c1cccnc1)C2
cytotoxicity at 70.5 h: -5.9%

CN(Cc1ccoc1)C(=O)Cn1ncc(N(C)C)cc1=O
cytotoxicity at 70.5 h: 9.67%

COc1ccccc1C(=O)N1CCOCC1c1c(C)n[nH]c1C (stereo not drawn)
cytotoxicity at 70.5 h: -15.2%

Cc1cc(NC(=O)NCCc2cscn2)nn1C
cytotoxicity at 70.5 h: -4.59%

CC(C)COCC(NC(=O)c1ccncc1)c1ccco1 (stereo not drawn)
cytotoxicity at 70.5 h: -4.28%

Cc1cc(C(F)(F)F)nc(CCNc2nc(C)nc3c2cnn3C)n1
cytotoxicity at 70.5 h: -4.44%

COCC(c1ccccn1)N(C)C(=O)c1cc(-c2ccccc2O)n[nH]1 (stereo not drawn)
cytotoxicity at 70.5 h: -6.79%

CCc1cnc(NCCS(=O)(=O)N(C)C)nc1
cytotoxicity at 70.5 h: 20.6%

Cc1noc(-c2ccc(N3CCN(Cc4ncccc4C)CC3)nc2)n1
cytotoxicity at 70.5 h: -7.47%

O=C(COc1cccc2c1CCC2=O)NCc1ccccc1Cl
cytotoxicity at 70.5 h: -10.6%

c1coc(CN2CCC(c3ccc4c(c3)OCO4)CC2)c1
cytotoxicity at 70.5 h: -3.77%

COCCOc1ccc(CNc2cnc3ccccc3n2)cn1
cytotoxicity at 70.5 h: -10.9%

c1ccc(CN2CCOC3(CCCN(c4nccs4)C3)C2)cc1 (stereo not drawn)
cytotoxicity at 70.5 h: -7.62%

Cc1cc(C(=O)NCC(C)C)nn1C
cytotoxicity at 70.5 h: -5.81%

CN(C)c1ccc(CNCc2cnc(N3CCOCC3)nc2)cn1
cytotoxicity at 70.5 h: 2.93%

COC1CN(C(=O)Cc2cccs2)CCC(=O)N(C)c2ccccc21 (stereo not drawn)
cytotoxicity at 70.5 h: 2.17%

O=C(C1CC1)N1CCc2[nH]cnc2C12CCN(C1CCOCC1)CC2
cytotoxicity at 70.5 h: -2.02%

CN(Cc1ccc2nonc2c1)C(=O)c1ccc(C2CCCO2)s1 (stereo not drawn)
cytotoxicity at 70.5 h: -4.66%

COCCC(=O)N1CC2(CCN(Cc3cccc(Cl)c3)CC2)C1
cytotoxicity at 70.5 h: -8.68%

O=C(c1cnc2c(c1)CCC2)N1CCCC(CO)(CC2CC2)C1 (stereo not drawn)
cytotoxicity at 70.5 h: -9.59%

CCSCCn1c(=O)n(Cc2ccc(F)cc2)c2ncc(C(=O)O)cc21
cytotoxicity at 70.5 h: -4.52%

COc1ccc(C(=O)N2Cc3c(Cn4ccnc4)nn(C)c3C2)cc1
cytotoxicity at 70.5 h: -8.74%

Cc1nc2c(c(NC3CC3)n1)CCN(C(=O)CCc1cccnc1)CC2
cytotoxicity at 70.5 h: 12.4%

CCc1cn[nH]c1C1CCN(c2cc(C)c3cccc(OC)c3n2)CC1
cytotoxicity at 70.5 h: 0.472%

CNC(=O)c1cn[nH]c1C1(C)CCCN(Cc2nccn2C(C)C)C1 (stereo not drawn)
cytotoxicity at 70.5 h: -2.7%

O=C1NC2(CCN(C(=O)c3ccnnc3)CC2)CC1c1ccccc1 (stereo not drawn)
cytotoxicity at 70.5 h: 22.9%

CS(=O)(=O)c1ccc(C(=O)NCc2nc3cc(F)ccc3[nH]2)cc1
cytotoxicity at 70.5 h: 0.751%

Cc1ccc(C(=O)N2CCOC3(CCCC3)C2)c(=O)[nH]1
cytotoxicity at 70.5 h: -41.7%

O=C(c1ccco1)N1CCn2cc(CN3CCCC3)nc2C1
cytotoxicity at 70.5 h: -1.74%

O=C(NC1CCNCC1)C1(N2CCCCC2)Cc2ccccc2C1
cytotoxicity at 70.5 h: 13.5%

CCC[C@@H]1CN(S(=O)(=O)c2ccc(C)c(F)c2)C[C@H]1N(C)C
cytotoxicity at 70.5 h: 0.773%

CCc1ncc2c(n1)CN(CC(=O)Nc1cccnc1)CC2
cytotoxicity at 70.5 h: 10.9%

COc1cccc2sc(N(C)CC(=O)NCc3nc(C)no3)nc12
cytotoxicity at 70.5 h: -3.58%

NC(=O)CN1CCCC(c2ccnc(Nc3ncccn3)c2)C1 (stereo not drawn)
cytotoxicity at 70.5 h: 18.8%

CC(C)COC(C)C(=O)NCc1ccc(N(C)C)cc1 (stereo not drawn)
cytotoxicity at 70.5 h: 7.68%

COCc1nnc(NC(=O)CN2C(=O)c3ccccc3NC2C(C)C)s1 (stereo not drawn)
cytotoxicity at 70.5 h: -12.3%

O=C(c1coc(COc2ccccc2F)n1)N1CCC[C@H]1CO
cytotoxicity at 70.5 h: -2.42%

Cc1cc(C)n(C2CN(CC(=O)NC(C3CC3)C3CC3)C2)n1
cytotoxicity at 70.5 h: -3.88%

CC(C)CSCCN1CCN(S(C)(=O)=O)CC1
cytotoxicity at 70.5 h: 0.763%

O=S(=O)(c1ccccc1)N1C(CN2CCOCC2)[C@]2(O)CC[C@H]1CC2 (stereo partly drawn)
cytotoxicity at 70.5 h: 16.5%

COc1ccccc1Oc1ncccc1CNC(=O)[C@@H](N)CCO
cytotoxicity at 70.5 h: 8.7%

CC(C)Cn1cncc1-c1nc2c([nH]1)CCCNC2=O
cytotoxicity at 70.5 h: -6.28%

c1ccc(Cc2nc(C3CC3)nn2-c2ccc3c(c2)OCCO3)nc1
cytotoxicity at 70.5 h: 43.6%

c1ccc(CN2CCc3ncnc(-c4ccncc4)c3CC2)nc1
cytotoxicity at 70.5 h: 22.4%

COc1ccc(Cn2nc(C(N)=O)ccc2=O)c(Cl)c1
cytotoxicity at 70.5 h: -3.77%

CN(C)C(=O)c1sc2ncccc2c1C1CNCCO1 (stereo not drawn)
cytotoxicity at 70.5 h: -6.3%

Cc1ccccc1-n1cc(CN(C)C(=O)CC2C(=O)NCCN2C)cn1 (stereo not drawn)
cytotoxicity at 70.5 h: -2.44%

Fc1cnc(N2CC[C@@H]3OC(COCc4cccnc4)CC[C@@H]32)nc1 (stereo partly drawn)
cytotoxicity at 70.5 h: -4.57%

Cc1ccc(C2CCCN2S(=O)(=O)N(C)Cc2cnn(C)c2)o1 (stereo not drawn)
cytotoxicity at 70.5 h: 13.3%

CCCN1CCN(S(=O)(=O)c2ccccc2OC)[C@H]2CS(=O)(=O)C[C@H]21
cytotoxicity at 70.5 h: -16.5%

COc1ccc(C(C)NCc2nnc(C)s2)cc1F (stereo not drawn)
cytotoxicity at 70.5 h: -2.29%

CNS(=O)(=O)c1cccc(C(C)NCc2ccc(C)c(C)c2)c1 (stereo not drawn)
cytotoxicity at 70.5 h: 19.3%

O=S(=O)(c1cncc(F)c1)N1CCC2(CCOC2)C1 (stereo not drawn)
cytotoxicity at 70.5 h: -14.3%

COCC(=O)N(Cc1ccc2cc[nH]c2c1)C1CC1
cytotoxicity at 70.5 h: -21%

CN(C)Cc1nn(C)c2c1CN(C(=O)c1cccc(C#N)c1)C2
cytotoxicity at 70.5 h: -11.5%

Nc1nccnc1C1CN(Cc2ccc(OCC(=O)O)cc2)CCO1 (stereo not drawn)
cytotoxicity at 70.5 h: 0.531%

CN(Cc1cccc(F)c1)Cc1nc2c(cnn2C)c(=O)[nH]1
cytotoxicity at 70.5 h: 5.31%

Cc1nsc(NC(=O)N2CCCCC2CCCO)n1 (stereo not drawn)
cytotoxicity at 70.5 h: -1.47%

O=C1CSCN1Cc1nc(-c2ccc(N3CCCCC3)cc2)no1
cytotoxicity at 70.5 h: -5.66%

Cc1ccc(CNC(=O)N2CCCCC2CCNS(C)(=O)=O)cc1 (stereo not drawn)
cytotoxicity at 70.5 h: -8.15%

COc1ccccc1CC1CCCN(CCC(N)=O)C1 (stereo not drawn)
cytotoxicity at 70.5 h: 5.7%
